The text below walks through data of ChEMBL document CHEMBL4304832, “Novel Pyrazole-Containing Compounds Active against Mycobacterium tuberculosis” (ACS Med Chem Lett, 2019).

Format in all cases: functional, organism-based
For experiment [1], the system named is Mycobacterium tuberculosis. The experiment is described as follows: Antitubercular activity against Mycobacterium tuberculosis H37Rv harboring mmpL3 P239H mutant at 20 uM incubated for 4 weeks by resazurin dye based fluorescence assay.
The subject of experiment [2] is Mycobacterium tuberculosis. Description: Antitubercular activity against Mycobacterium tuberculosis H37Rv harboring lprM V86V mutant at 25 uM incubated for 4 weeks by resazurin dye based fluorescence assay. For orientation: Alamar Blue is a resazurin reagent that responds to reducing activity.
The subject of experiment [3] is Mycobacterium tuberculosis. The experiment is described as follows: Antitubercular activity against Mycobacterium tuberculosis H37Rv harboring fadD26 (336 amino acids) insertion mutant at 20 uM incubated for 4 weeks by resazurin dye based fluorescence assay.
Experiment [4] deals with Mycobacterium tuberculosis. The experiment is described as follows: Antitubercular activity against Mycobacterium tuberculosis H37Rv harboring mmpL3 V240A mutant at 12.5 uM incubated for 4 weeks by resazurin dye based fluorescence assay.
Experiment [5] deals with Mycobacterium tuberculosis. The experiment is described as follows: Antitubercular activity against Mycobacterium tuberculosis H37Rv harboring ppsB L1476S mutant at 12.5 uM incubated for 4 weeks by resazurin dye based fluorescence assay.

Active and inactive are the calls of the source. The calls are words filed in the database; no cut-off is given here.

For the compound `CC(C)c1ccc(-c2cc(CN3CCN(c4ccccn4)CC3)nn2C2CCCCC2)cc1`, the outcome in experiment [1], in experiment [2] and in experiment [3] was Active.

For `COC1CCN(Cc2cc(-c3ccc(C(C)C)cc3)n(-c3ccc(F)cc3)n2)CC1`, the result in experiment [4] and in experiment [5] was Active.
